# From PubChem BioAssay (NCI)
# Values joined by “and” are separate entries in the source; they are usually repeats but may differ in a detail not shown here. Equal values may be shown once.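 Protocol summary: plate cells (96-well), add compound at 5 concentrations, incubate 48 h, interpolate endpoints linearly. Here, GI50 denotes the concentration required for 50% inhibition of growth. At the TGI there is no net growth.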
# Tests used:
# Experiment in all cases: NCI anticancer screen, dose series, 48 h
# SK-OV-3 ovarian = test system: SK-OV-3 ovarian
# UACC-62 melanoma = test system: UACC-62 melanoma
# A498 renal = test system: A498 renal
# OVCAR-5 ovarian = test system: OVCAR-5 ovarian
# TK-10 renal = test system: TK-10 renal
# MCF7 breast = test system: MCF7 breast
# SN12C renal = test system: SN12C renal
# MDA-MB-231 breast = test system: MDA-MB-231 breast
# SF-295 CNS = test system: SF-295 CNS
# SW-620 colon = test system: SW-620 colon
SMILES,GI50 (SK-OV-3 ovarian),TGI (SK-OV-3 ovarian),GI50 (UACC-62 melanoma),TGI (UACC-62 melanoma),GI50 (A498 renal),TGI (A498 renal),GI50 (OVCAR-5 ovarian),TGI (OVCAR-5 ovarian),GI50 (TK-10 renal),TGI (TK-10 renal),GI50 (MCF7 breast),TGI (MCF7 breast),GI50 (SN12C renal),TGI (SN12C renal),GI50 (MDA-MB-231 breast),TGI (MDA-MB-231 breast),GI50 (SF-295 CNS),TGI (SF-295 CNS),GI50 (SW-620 colon),TGI (SW-620 colon)
COC(=O)/C=C/c1cn(C(C)=O)c2ccc(Br)cc12,32.4 µM,> 100 µM,30.7 µM,> 100 µM,20.9 µM,45.7 µM,31 µM,> 83.3 µM,24.7 µM,71.4 µM,15.7 µM,> 100 µM,31.6 µM,> 100 µM,11.8 µM,29.5 µM,16.1 µM,40.1 µM,35.6 µM,> 100 µM
COc1ccc(-c2nc(N3CCN(C(=O)C4CCCCC4)CC3)c3c4c(sc3n2)CCCC4)cc1,25.2 µM,71.7 µM,40.8 µM,> 100 µM,14.2 µM,81.3 µM,> 100 µM,> 100 µM,34.4 µM,90.8 µM,82.9 µM,> 100 µM,> 100 µM,> 100 µM,19.4 µM,82.8 µM,26.2 µM,85.1 µM,> 100 µM,> 100 µM
COc1cc(-c2nn(-c3cccc(NC(=O)c4ccc(N5CCOCC5)c(C(F)(F)F)c4)c3)cc2-c2ccncc2)ccc1Cl,0.345 µM,5.34 µM,0.207 µM,7.07 µM,0.103 µM,0.765 µM,1.2 µM,> 86.4 µM,1.22 µM,19.5 µM,0.263 µM,> 100 µM,0.709 µM,> 75.8 µM,0.384 µM,3.54 µM,0.15 µM,1.15 µM,0.168 µM,> 56.9 µM
N#CC1=C(N)NC(=S)NC12Nc1ccccc1N2,61 µM,> 100 µM,12.5 µM,57.5 µM,20 µM,43.5 µM,46.8 µM,> 100 µM,46.4 µM,> 100 µM,22.7 µM,> 100 µM,55.5 µM,> 100 µM,> 100 µM,> 100 µM,33.1 µM,> 100 µM,59.5 µM,> 100 µM
C/C(=C\COc1c2c(cc3c1CCO3)OC1(C=C2)OC(CC/C(C)=C/COc2c3ccoc3cc3oc(=O)ccc23)C(C)(C)O1)CCC(O)C(C)(C)O (stereo not drawn),> 100 µM,> 100 µM,4.87 µM,> 100 µM,32.8 µM,> 100 µM,80.2 µM,> 100 µM,78.8 µM,> 100 µM,5.62 µM,> 100 µM,89.1 µM,> 100 µM,7.59 µM,> 100 µM,9.09 µM,> 100 µM,62.3 µM,> 100 µM
COc1cc(O)c2c(c1)C(=O)c1cc3c(c(O)c1C2=O)C(OC1OC(C)C(O)C(O)C1OC)C(OC)C(C)(O)C3=O (stereo not drawn),5.2 µM,52 µM and 34.8 µM,1.68 µM,3.16 µM and 4.1 µM,1.58 µM,3.13 µM and 5.31 µM,2.18 µM,8.48 µM and 9.24 µM,4.29 µM,61.4 µM,–,6.76 µM and 6.4 µM,–,7.18 µM and 7.44 µM,2.66 µM,9.2 µM,1.53 µM,4.7 µM and 5.97 µM,2.3 µM,8.38 µM and 5.41 µM
O=c1c2ccccc2c2ccccc2c(=O)n1Cc1ccc2c(c1)OCO2,–,> 100 µM,–,> 100 µM,–,> 100 µM,–,> 100 µM,–,> 100 µM,–,> 100 µM,–,> 100 µM,–,> 100 µM,–,> 100 µM,–,> 100 µM
COC(=O)[C@H](Cc1ccc(O)cc1)NC(=O)[C@@H](OC)[C@@H]1Cc2cc3cc(OC4CC(OC5CC(O)C(O)C(C)O5)C(O)C(C)O4)c(C)c(O)c3c(O)c2C(=O)[C@H]1OC1CC(OC2CC(OC3CC(C)(O)C(O)C(C)O3)C(O)C(C)O2)C(O)C(C)O1 (stereo partly drawn),0.185 µM,> 25 µM,0.0223 µM,0.106 µM,0.0892 µM,0.451 µM,0.207 µM,> 25 µM,0.793 µM,> 25 µM,0.0119 µM,> 25 µM,0.0595 µM,> 25 µM,0.196 µM,> 25 µM,0.132 µM,> 25 µM,0.0902 µM,> 25 µM
O=C(NCc1ccncc1)C12CC3CC(C1)CC(c1ccc(Cl)cc1)(C3)C2,12.5 µM,25.2 µM,5.02 µM,18.7 µM,7.85 µM,20.8 µM,14 µM,28.7 µM,15.3 µM,29.5 µM,10.2 µM,27.8 µM,13.4 µM,27.3 µM,12 µM,26.2 µM,12.7 µM,27.3 µM,13.7 µM,28.5 µM
CCCCN(CCCC)CCCn1c(=O)c2c3ccccc3n(C)c2n2nnc(-c3ccccc3)c12,30.3 µM,> 100 µM,22.4 µM,84.4 µM,42.7 µM,> 100 µM,22.3 µM,> 100 µM,1.9 µM,22.4 µM,37.2 µM,> 100 µM,19.4 µM,94.8 µM,36.6 µM,> 100 µM,31.9 µM,> 100 µM,26.5 µM,> 100 µM
CCCCCCCCCCCCOC1C(C(CC(=O)N2CCN(c3cccc(C(F)(F)F)c3)CC2)NS(=O)(=O)c2cc(Cl)cc(Cl)c2)OC2OC(C)(C)OC21 (stereo not drawn),> 100 µM,> 100 µM,> 100 µM,> 100 µM,> 100 µM,> 100 µM,> 37.5 µM,> 100 µM,> 100 µM,> 100 µM,> 100 µM,> 100 µM,> 100 µM,> 100 µM,> 100 µM,> 100 µM,> 100 µM,> 100 µM,> 100 µM,> 100 µM
COc1cccc2c1c(C1=C(c3cn(C)c4ccccc34)C(=O)NC1=O)cn2C,> 25 µM,> 25 µM,> 25 µM,> 25 µM,> 25 µM,> 25 µM,> 25 µM,> 25 µM,> 25 µM,> 25 µM,> 25 µM,> 25 µM,> 25 µM,> 25 µM,> 25 µM,> 25 µM,> 25 µM,> 25 µM,> 25 µM,> 25 µM
